Reference: PubChem BioAssay (NCI)
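Cultured in 96-well plates, cells were exposed to test compound for 48 hours across five concentrations. Abbreviation: GI50, concentration required for 50% inhibition of growth. TGI denotes the concentration required for complete inhibition of growth.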

Legend:
Assay in all cases: NCI tumour cell line growth inhibition, 48 h
786-0 renal = test system: 786-0 renal
A498 renal = test system: A498 renal
A549 NSCLC = test system: A549 NSCLC
ACHN renal = test system: ACHN renal
BT-549 breast = test system: BT-549 breast
CAKI-1 renal = test system: CAKI-1 renal
CCRF-CEM leukemia = test system: CCRF-CEM leukemia
COLO 205 colon = test system: COLO 205 colon
DU-145 prostate = test system: DU-145 prostate
EKVX NSCLC = test system: EKVX NSCLC
HCC-2998 colon = test system: HCC-2998 colon
HCT-116 colon = test system: HCT-116 colon
HCT-15 colon = test system: HCT-15 colon
HL-60(TB) leukemia = test system: HL-60(TB) leukemia
HOP-62 NSCLC = test system: HOP-62 NSCLC
HOP-92 NSCLC = test system: HOP-92 NSCLC
HS 578T breast = test system: HS 578T breast
HT29 colon = test system: HT29 colon
IGROV1 ovarian = test system: IGROV1 ovarian
K-562 leukemia = test system: K-562 leukemia
KM12 colon = test system: KM12 colon
LOX IMVI melanoma = test system: LOX IMVI melanoma
M14 melanoma = test system: M14 melanoma
MALME-3M melanoma = test system: MALME-3M melanoma
MCF7 breast = test system: MCF7 breast
MDA-MB-231 breast = test system: MDA-MB-231 breast
MDA-MB-435 = test system: MDA-MB-435
MOLT-4 leukemia = test system: MOLT-4 leukemia
NCI-H226 lung = test system: NCI-H226 lung
NCI-H23 lung = test system: NCI-H23 lung
NCI-H460 lung = test system: NCI-H460 lung
NCI-H522 lung = test system: NCI-H522 lung
NCI/ADR-RES ovarian = test system: NCI/ADR-RES ovarian
OVCAR-3 ovarian = test system: OVCAR-3 ovarian
OVCAR-4 ovarian = test system: OVCAR-4 ovarian
OVCAR-5 ovarian = test system: OVCAR-5 ovarian
OVCAR-8 ovarian = test system: OVCAR-8 ovarian
PC-3 prostate = test system: PC-3 prostate
RPMI-8226 leukemia = test system: RPMI-8226 leukemia
RXF 393 renal = test system: RXF 393 renal
SF-268 CNS = test system: SF-268 CNS
SF-295 CNS = test system: SF-295 CNS
SF-539 CNS = test system: SF-539 CNS
SK-MEL-2 melanoma = test system: SK-MEL-2 melanoma
SK-MEL-28 melanoma = test system: SK-MEL-28 melanoma
SK-MEL-5 melanoma = test system: SK-MEL-5 melanoma
SK-OV-3 ovarian = test system: SK-OV-3 ovarian
SN12C renal = test system: SN12C renal
SNB-19 CNS = test system: SNB-19 CNS
SNB-75 CNS = test system: SNB-75 CNS
SW-620 colon = test system: SW-620 colon
T-47D breast = test system: T-47D breast
TK-10 renal = test system: TK-10 renal
U251 CNS = test system: U251 CNS
UACC-257 melanoma = test system: UACC-257 melanoma
UACC-62 melanoma = test system: UACC-62 melanoma
UO-31 renal = test system: UO-31 renal

For `COc1ccc(-n2c(SCC(=O)Nc3ccc(-c4nc5ccccc5[nH]4)cc3)nc3ccccc3c2=O)cc1`, the GI50 (786-0 renal) was 17.7 µM, the TGI (786-0 renal) was 34.2 µM and the GI50 (A498 renal) was > 100 µM. For the same molecule, the TGI (A498 renal) was > 100 µM, the GI50 (A549 NSCLC) was 3.58 µM and the TGI (A549 NSCLC) was 14.2 µM. For the same molecule, the GI50 (ACHN renal) was 17.1 µM, the TGI (ACHN renal) was 33.7 µM and the GI50 (BT-549 breast) was 8.06 µM. For the same molecule, the TGI (BT-549 breast) was 24.5 µM, the GI50 (CAKI-1 renal) was 29.7 µM and the TGI (CAKI-1 renal) was > 100 µM. For the same molecule, the GI50 (CCRF-CEM leukemia) was 6.15 µM, the TGI (CCRF-CEM leukemia) was > 100 µM and the GI50 (COLO 205 colon) was 28.3 µM. The TGI (COLO 205 colon) was 76.6 µM, the GI50 (DU-145 prostate) was 10.9 µM and the TGI (DU-145 prostate) was 33 µM. The GI50 (EKVX NSCLC) was 47.2 µM, the TGI (EKVX NSCLC) was > 100 µM and the GI50 (HCC-2998 colon) was 14.3 µM. It also gave a TGI (HCC-2998 colon) of 46 µM, a GI50 (HCT-116 colon) of 4.88 µM and a TGI (HCT-116 colon) of 26.2 µM. For the same molecule, the GI50 (HCT-15 colon) was 2.95 µM, the TGI (HCT-15 colon) was 12 µM and the GI50 (HL-60(TB) leukemia) was 9.91 µM. The TGI (HL-60(TB) leukemia) was > 100 µM, the GI50 (HOP-62 NSCLC) was 23.3 µM and the TGI (HOP-62 NSCLC) was 59.6 µM. The GI50 (HOP-92 NSCLC) was 12.7 µM, the TGI (HOP-92 NSCLC) was 31.3 µM and the GI50 (HS 578T breast) was 21.6 µM. For the same molecule, the TGI (HS 578T breast) was 71.5 µM, the GI50 (HT29 colon) was 15 µM and the TGI (HT29 colon) was 36.5 µM. The GI50 (IGROV1 ovarian) was 15.2 µM, the TGI (IGROV1 ovarian) was 42.9 µM and the GI50 (K-562 leukemia) was 4.82 µM. For the same molecule, the TGI (K-562 leukemia) was > 100 µM, the GI50 (KM12 colon) was 51.4 µM and the TGI (KM12 colon) was > 100 µM. It also gave a GI50 (LOX IMVI melanoma) of 2.1 µM, a TGI (LOX IMVI melanoma) of 3.91 µM and a GI50 (M14 melanoma) of 13.1 µM. For the same molecule, the TGI (M14 melanoma) was 55.5 µM, the GI50 (MALME-3M melanoma) was 2.58 µM and the TGI (MALME-3M melanoma) was 16.2 µM. It also gave a GI50 (MCF7 breast) of 2.05 µM, a TGI (MCF7 breast) of 5.11 µM and a GI50 (MDA-MB-231 breast) of 16.2 µM. For the same molecule, the TGI (MDA-MB-231 breast) was 49.6 µM, the GI50 (MDA-MB-435) was 9.17 µM and the TGI (MDA-MB-435) was 27.6 µM. The GI50 (MOLT-4 leukemia) was 5.85 µM, the TGI (MOLT-4 leukemia) was > 100 µM and the GI50 (NCI-H226 lung) was > 100 µM. For the same molecule, the TGI (NCI-H226 lung) was > 100 µM, the GI50 (NCI-H23 lung) was 10.2 µM and the TGI (NCI-H23 lung) was 35.1 µM. The GI50 (NCI-H460 lung) was 3.39 µM, the TGI (NCI-H460 lung) was 12.1 µM and the GI50 (NCI-H522 lung) was 14.5 µM. For the same molecule, the TGI (NCI-H522 lung) was 32.3 µM, the GI50 (NCI/ADR-RES ovarian) was 16.7 µM and the TGI (NCI/ADR-RES ovarian) was > 100 µM. It also gave a GI50 (OVCAR-3 ovarian) of 18 µM, a TGI (OVCAR-3 ovarian) of 39.7 µM and a GI50 (OVCAR-4 ovarian) of 7.74 µM. The TGI (OVCAR-4 ovarian) was 20.8 µM, the GI50 (OVCAR-5 ovarian) was 23.7 µM and the TGI (OVCAR-5 ovarian) was > 100 µM. The GI50 (OVCAR-8 ovarian) was 18.1 µM, the TGI (OVCAR-8 ovarian) was 39.6 µM and the GI50 (PC-3 prostate) was 18 µM. It also gave a TGI (PC-3 prostate) of 62.9 µM, a GI50 (RPMI-8226 leukemia) of 3.72 µM and a TGI (RPMI-8226 leukemia) of 70.5 µM. It also gave a GI50 (RXF 393 renal) of 12.7 µM, a TGI (RXF 393 renal) of 27.3 µM and a GI50 (SF-268 CNS) of 42.9 µM. The TGI (SF-268 CNS) was > 100 µM, the GI50 (SF-295 CNS) was 13.3 µM and the TGI (SF-295 CNS) was 27.9 µM. It also gave a GI50 (SF-539 CNS) of 14.1 µM, a TGI (SF-539 CNS) of 27.8 µM and a GI50 (SK-MEL-2 melanoma) of 50.7 µM. For the same molecule, the TGI (SK-MEL-2 melanoma) was > 100 µM, the GI50 (SK-MEL-28 melanoma) was 3.52 µM and the TGI (SK-MEL-28 melanoma) was 13.4 µM. The GI50 (SK-MEL-5 melanoma) was 14 µM, the TGI (SK-MEL-5 melanoma) was 30.4 µM and the GI50 (SK-OV-3 ovarian) was > 100 µM. The TGI (SK-OV-3 ovarian) was > 100 µM, the GI50 (SN12C renal) was 11.3 µM and the TGI (SN12C renal) was 25.6 µM. The GI50 (SNB-19 CNS) was 17.9 µM, the TGI (SNB-19 CNS) was 60.2 µM and the GI50 (SNB-75 CNS) was 19.9 µM. It also gave a TGI (SNB-75 CNS) of 91.9 µM, a GI50 (SW-620 colon) of 6.63 µM and a TGI (SW-620 colon) of 42.5 µM. The GI50 (T-47D breast) was 17.3 µM, the TGI (T-47D breast) was 36.7 µM and the GI50 (TK-10 renal) was 21.6 µM. For the same molecule, the TGI (TK-10 renal) was 42 µM, the GI50 (U251 CNS) was 15.1 µM and the TGI (U251 CNS) was 31.5 µM. For the same molecule, the GI50 (UACC-257 melanoma) was 19 µM, the TGI (UACC-257 melanoma) was 39.2 µM and the GI50 (UACC-62 melanoma) was 15.8 µM. The TGI (UACC-62 melanoma) was 30.5 µM, the GI50 (UO-31 renal) was 11.8 µM and the TGI (UO-31 renal) was 29.1 µM.
